This data set in a line: method code SF-AS, from DOI: 10.1002/hlca.19830660215. Conditions: for logD: pH 11.0.

As to `CCN(CC)CCCNC(=O)c1ccccc1OC`, the logP was 1.76. As to `COc1ccccc1C(=O)NCCCCN`, the logD was 0.58. For `CN(C)CCCNC(=O)c1ccccc1`, the logD was 1.27. The compound `COc1ccccc1C(=O)NCCCN(C)C` displayed a logP of 1.27. Consider `CCN(CC)CCNC(=O)c1ccccc1`, for which the logD was found to be 1.84. Consider `CN(C)CCNC(=O)c1ccccc1`, for which the logP was found to be 1.1. Take `COc1ccccc1C(=O)NCCN`: the logP is 0. `CCN(CC)CCCNC(=O)c1ccccc1` showed a logD of 1.56. In turn, `COc1ccccc1C(=O)N1CCN(C)CC1` returned a logP of 0.29.

`NCCCCNC(=O)c1ccccc1` displayed a log distribution coefficient (logD) of 0.58. On the same count and under the same terms, to `NCCNC(=O)c1ccccc1` belongs 0.06.

On to `NCCCNC(=O)c1ccccc1`, for which the logD is 0.3. `CCN(CC)CCNC(=O)c1ccccc1OC` yielded a logP of 1.98. Still for that read-out and setting: in the case of `COc1ccccc1C(=O)NCCN(C)C` it was 1.14.

One may read the logP as the decadic logarithm of the partition coefficient of the neutral form, usually between octanol and water. As a reminder, the logD is the decadic logarithm of the distribution of all forms, ionised or not, between an organic phase and buffer at a given pH. The low end stands for lower lipophilicity, the high end for higher lipophilicity.

For the origin of these results see the SangsterLogP compilation.
